# Measurements: patent US20150133492A1, “N-desmethyldauricine, A Novel Autophagic Enhancer for Treatment of Cancers and Neurodegenerative Conditions Thereof” (Macau University of Science and Technology, priority 2013, published 2015)
# Test system: LC3
# Experiment: Western blot of autophagic marker LC3 conversion and autophagic flux
# Type: cell-based, human
# Conditions: HeLa
# Experimental: (§1) After N-desmethyldauricine treatments, HeLa cancer cells were harvested and lysed in RIPA buffer (Cell Signaling Technologies Inc. (Beverly, Mass.). The cell lysates were then resolved by SDS-PAGE. After electrophoresis, the proteins from SDS-PAGE were transferred to nitrocellulose membrane which was then blocked with 5% non-fat dried milk for 60 minutes. The membrane was then incubated with LC3 primary antibodies (1:1000) in TBST overnight at 4° C. After that, the membrane was further incubated with HRP-conjugated secondary antibodies for 60 minutes. Finally, protein bands were visualized by using the ECL Western Blotting Detection Reagents (Invitrogen, Paisley, Scotland, UK).
# as §1, with “treatments in the presence or absence of lysosomal inhibitor 10·M of E64d/Pepstatin A,” for “treatments,”, “Inc., Beverly,” for “Inc. (Beverly,”, “Finally, protein bands were visualized by using the ECL Western Blotting Detection Reagents (Invitrogen, Paisley, Scotland, UK).” left out
compound,measurement,setting,value
COc1cc2c(cc1OC)[C@@H](Cc1ccc(Oc3cc(C[C@H]4NCCc5cc(OC)c(OC)cc54)ccc3O)cc1)N(C)CC2 [N-desmethyldauricine],autophagic marker LC3-II conversion,western blot,induced
same,LC3-II conversion in the presence of lysosomal inhibitor,with E64d/Pepstatin A,further enhance
